Data published in patent EP4768484A1, “HETEROCYCLIC FUSED RING COMPOUND, AND COMPOSITION AND USE THEREOF” (Shenzhen TargetRx, Inc., priority 2023, dated 2025).

Experiments:
Assay type in all cases: cell-based
[1] = molecular target: T1, Ba/F3 BCR-ABL1 A337V (Homo sapiens, UniProt P00519+P11274, A337V); assay: Cell growth inhibitory activity assay (CellTiter-Glo), Ba/F3 BCR-ABL1 A337V cells; conditions: 72 h, CTG cell viability
T1 construct: BCR (N-terminal fusion partner of the oncoprotein); expressed in transfected cells; host or cells: Ba/F3 (lentiviral transduction, monoclonal line)
Description: (§1) In this assay, the Celltiter-Glo (CTG) kit provided by Promega was used, and it is a homogeneous cell viability assay method. The cell viability of cultured cells was measured by quantifying ATP. K562 cells were purchased from Nanjing Kebai, product number CBP60529; Ba/F3 parental cells were purchased from RIKEN BRC, product number RCB0805; other cells containing BCR-ABL1 WT, BCR-ABL1 T315I, BCR-ABL1 T315M, BCR-ABL1 Y253H/E255K, BCR-ABL1 E255V/T3151, BCR-ABL1 A424T, BCR-ABL1 A337V, BCR-ABL1 P465S, BCR-ABL1 V468F, and BCR-ABL1 I502L were all monoclonal engineered cell lines obtained by transducting Ba/F3 parental cells with the lentivirus plasmids containing WT or corresponding mutated BCR-ABL1.
(§2) The steps of cell viability assay are as follows: • a) Cells in logarithmic growth phase were collected. Cell suspension was prepared and the cells were counted. Concentration of the cells was calculated. • b) The cell suspension was diluted to the required concentration and then added to the middle wells of a 96-well plate, and PBS was added to the edge wells. The wells with no cells and only culture medium were used as blank controls. • c) In addition to the cell plate used for compound analysis, another 96-well plate was prepared as a T0 plate, and 3-6 blank wells and 3-6 cell wells were added. The next day, CTG was used to test the cell viability as the T0 viability value of the cells. • d) The cell plate was incubated at 37 °C in a 5% CO2 incubator overnight. • e) The next day, each concentration of a compound subjected to a gradient dilution was added, and the cell plate was incubated at 37 °C in a 5% CO2 incubator for 72 h. The wells with no compound and only 0.5% DMSO were used as positive controls for cell growth. • f) CTG reagent (CellTiter-Glo kit) was added according to the manufacturer's instructions to test the cell viability value. • g) The plate was read using Biotek cytation3.0 microplate reader and the data were exported. • h) IC50 was calculated using GraphPad Prism 7.0 software.
(§3) The IC50 (half-maximal inhibitory concentration) of the compound was obtained using the following nonlinear fitting formula: Y = Bottom + (Top−Bottom)/(1+10^(∧)((LogIC50−X)*HillSlope)) [formula] • X: Log value of the compound concentration • Y: Inhibition rate (% inhibition) • Top: Maximum response • Bottom: Baseline response • HillSlope: Slope of the curve
(§4) The formula for calculating cell inhibition rate (inhibition rate %) was: [formula]

[2] = molecular target: T2, Ba/F3 BCR-ABL1 WT (Homo sapiens, UniProt P00519+P11274); assay: Cell growth inhibitory activity assay (CellTiter-Glo), Ba/F3 BCR-ABL1 WT cells; conditions: 72 h, CTG cell viability
T2 construct: BCR (N-terminal fusion partner of the oncoprotein); expressed in transfected cells; host or cells: Ba/F3 (lentiviral transduction, monoclonal line)
How it was run: (§5)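 Ba/F3 parental cells or Ba/F3 lines lentivirally transduced with WT or mutant BCR-ABL1, seeded overnight then exposed to serially diluted compound 72 h at 37 °C, 5% CO2. Viability by CellTiter-Glo ATP luminescence with a T0 plate; 0.5% DMSO controls; IC50 from four-parameter nonlinear fit.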

[3] = molecular target: T3, Ba/F3 BCR-ABL1 T315M (Homo sapiens, UniProt P00519+P11274, T315M); assay: Cell growth inhibitory activity assay (CellTiter-Glo), Ba/F3 BCR-ABL1 T315M cells; conditions: 72 h, CTG cell viability
T3 construct: BCR (N-terminal fusion partner of the oncoprotein); expressed in transfected cells; host or cells: Ba/F3 (lentiviral transduction, monoclonal line)
How it was run: as §5

[4] = molecular target: T4, Ba/F3 BCR-ABL1 A424T (Homo sapiens, UniProt P00519+P11274, A424T); assay: Cell growth inhibitory activity assay (CellTiter-Glo), Ba/F3 BCR-ABL1 A424T cells; conditions: 72 h, CTG cell viability
T4 construct: BCR (N-terminal fusion partner of the oncoprotein); expressed in transfected cells; host or cells: Ba/F3 (lentiviral transduction, monoclonal line)
Description: as §1, §2, §3, §4

[5] = molecular target: T5, Ba/F3 BCR-ABL1 Y253H/E255K (Homo sapiens, UniProt P00519+P11274, E255K/Y253H); assay: Cell growth inhibitory activity assay (CellTiter-Glo), Ba/F3 BCR-ABL1 Y253H/E255K cells; conditions: 72 h, CTG cell viability
T5 construct: BCR (N-terminal fusion partner of the oncoprotein); expressed in transfected cells; host or cells: Ba/F3 (lentiviral transduction, monoclonal line)
Description: as §1, §2, §3, §4

[6] = system: K562 cells; assay: Cell growth inhibitory activity assay (CellTiter-Glo), K562 cells; conditions: Homo sapiens, 72 h, CTG cell viability
How it was run: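 Growth inhibition of human K562 cells, sourced from Nanjing Kebai (CBP60529), was assessed with Promega's CellTiter-Glo kit, which measures viability through ATP quantification. Log-phase cells went into the inner wells of 96-well plates, with PBS in edge wells, incubated overnight at 37 °C and 5% CO2, then exposed to serially diluted compound for 72 h.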

[7] = molecular target: T6, Ba/F3 BCR-ABL1 T315I (Homo sapiens, UniProt P00519+P11274, T315I); assay: Cell growth inhibitory activity assay (CellTiter-Glo), Ba/F3 BCR-ABL1 T315I cells; conditions: 72 h, CTG cell viability
T6 construct: BCR (N-terminal fusion partner of the oncoprotein); expressed in transfected cells; host or cells: Ba/F3 (lentiviral transduction, monoclonal line)
How it was run: as §5

[8] = molecular target: T7, Ba/F3 BCR-ABL1 I502L (Homo sapiens, UniProt P00519+P11274, I502L); assay: Cell growth inhibitory activity assay (CellTiter-Glo), Ba/F3 BCR-ABL1 I502L cells; conditions: 72 h, CTG cell viability
T7 construct: BCR (N-terminal fusion partner of the oncoprotein); expressed in transfected cells; host or cells: Ba/F3 (lentiviral transduction, monoclonal line)
Description: as §1, §2, §3, §4

[9] = system: Ba/F3 parental cells; assay: Cell growth inhibitory activity assay (CellTiter-Glo), Ba/F3 parental cells; conditions: Mus musculus, BaF3, 72 h, CTG cell viability, read-out: IC50 Ba/F3 BCR-ABL1 Parental
How it was run: as §5

[10] = molecular target: T8, Ba/F3 BCR-ABL1 P465S (Homo sapiens, UniProt P00519+P11274, P465S); assay: Cell growth inhibitory activity assay (CellTiter-Glo), Ba/F3 BCR-ABL1 P465S cells; conditions: 72 h, CTG cell viability
T8 construct: BCR (N-terminal fusion partner of the oncoprotein); expressed in transfected cells; host or cells: Ba/F3 (lentiviral transduction, monoclonal line)
Description: as §1, §2, §3, §4

[11] = molecular target: T9, Ba/F3 BCR-ABL1 V468F (Homo sapiens, UniProt P00519+P11274, V468F); assay: Cell growth inhibitory activity assay (CellTiter-Glo), Ba/F3 BCR-ABL1 V468F cells; conditions: 72 h, CTG cell viability
T9 construct: BCR (N-terminal fusion partner of the oncoprotein); expressed in transfected cells; host or cells: Ba/F3 (lentiviral transduction, monoclonal line)
Description: as §1, §2, §3, §4

[12] = molecular target: T10, Ba/F3 BCR-ABL1 E255V/T315I (Homo sapiens, UniProt P00519+P11274, E255V/T315I); assay: Cell growth inhibitory activity assay (CellTiter-Glo), Ba/F3 BCR-ABL1 E255V/T315I cells; conditions: 72 h, CTG cell viability
T10 construct: BCR (N-terminal fusion partner of the oncoprotein); expressed in transfected cells; host or cells: Ba/F3 (lentiviral transduction, monoclonal line)
Description: as §1, §2, §3, §4

Measured: IC50

CCn1cc2c(n1)-c1cc(-c3cc(C(=O)Nc4ccc(OC(F)(F)Cl)cc4)cc4nc5n(c34)[C@H](C)COC5)cnc1C2 [T-18, (R)-N-(4-(chlorodifluoromethoxy)phenyl)-6-(2-ethyl-2,4-dihydropyrazolo[3',4':3,4]cyclopenta[1,2-b]pyridin-7-yl)-4-methyl-3,4-dihydro-1H-benzo[4,5]imidazo[2,1-c][1,4]oxazine-8-carboxamide]
> 1000 nM: [3] | [9]
≤ 5 nM: [2] | [5] | [6] | [7] | [12]
5 to 50 nM: all other assays above

C[C@@H]1CCSc2nc3cc(C(=O)Nc4ccc(OC(F)(F)Cl)cc4)cc(-c4cnc5c(c4)C(=O)N(C)C5)c3n21 [T-20, (R)-N-(4-(chlorodifluoromethoxy)phenyl)-4-methyl-6-(6-methyl-5-oxo-6,7-dihydro-5H-pyrrolo[3,4-b]pyridin-3-yl)-3,4-dihydro-2H-benzo[4,5]imidazo[2,1-b][1,3]thiazine-8-carboxamide]
5 to 50 nM: [7] | [8] | [12]
≤ 5 nM: [2] | [6]
> 1000 nM: [3] | [9]
50 to 1000 nM: all other assays above

C[C@@H]1COCc2nc3cc(C(=O)Nc4ccc(OC(F)(F)Cl)cc4)cc(-c4cnc5c(c4)C(=O)N(C)C5)c3n21 [T-21, (R)-N-(4-(chlorodifluoromethoxy)phenyl)-4-methyl-6-(6-methyl-5-oxo-6,7-dihydro-5H-pyrrolo[3,4-b]pyridin-3-yl)-3,4-dihydro-1H-benzo[4,5]imidazo[2,1-c][1,4]oxazine-8-carboxamide]
> 1000 nM: [3] | [9]
50 to 1000 nM: [1] | [4] | [10] | [11]
≤ 5 nM: [2] | [6]
5 to 50 nM: all other assays above

[2H]C([2H])([2H])N1Cc2ncc(-c3cc(C(=O)Nc4ccc(OC(F)(F)Cl)cc4)cc4nc5n(c34)[C@H](C)COC5)cc2C1=O [T-31, (R)-N-(4-(chlorodifluoromethoxy)phenyl)-4-methyl-6-(6-(methyl-d3)-5-oxo-6,7-dihydro-5H-pyrrolo[3,4-b]pyridin-3-yl)-3,4-dihydro-1H-benzo[4,5]imidazo[2,1-c][1,4]oxazine-8-carboxamide]
> 1000 nM: [9]
≤ 5 nM: [2] | [6]
50 to 1000 nM: [1] | [8] | [10]
5 to 50 nM: all other assays above
